Patent publication US9840478B2 (MERCK SHARP & DOHME CORP., priority 2013, dated 2017)

test system: HIV-1 (H9IIIB strain); assay: Cell-based HIV infection assay using a reporter (Cell-Based), MT4-GFP cells; conditions: Human immunodeficiency virus 1, MT4-GFP cells infected with HIV-1 H9IIIB; 50% normal human serum; mean of at least two independent experiments; read-out: Cell-based IP
How it was run: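 IC50 from 4-parameter dose-response of % viral growth inhibition, using the 48 h/24 h infected-cell ratio scaled between DMSO and a protease/integrase/NNRTI triple-drug control. Assay used MT4 cells with HIV-LTR-GFP reporter, pre-infected 24 h with HIV-1 H9IIIB, in 50% normal human serum.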

| SMILES | IC50 [nM] |
| --- | --- |
| C[C@H]1CNC[C@H](CCc2c(F)cccc2NC(=O)[C@@H](N)[C@@H](c2ccc(Cl)cc2)c2cc(F)cc(F)c2)N1S(=O)(=O)C1CC1 [Example 199, (βS)-4-chloro-N-(2-{2-[(2S,6S)-1-(cyclopropylsulfonyl)-6-methylpiperazin-2-yl]ethyl}-3-fluorophenyl)-β-(3,5-difluorophenyl)-L-phenylalaninamide] | 20 |
| C[C@H]1CNC[C@H](CCc2c(F)cccc2NC(=O)[C@@H](N)C(c2cccc(F)c2)c2cccc(F)c2)N1S(=O)(=O)c1ccccc1Cl [Example 137, N-[2-(2-{(2S,6S)-1-[(2-chlorophenyl)sulfonyl]-6-methylpiperazin-2-yl}ethyl)-3-fluorophenyl]-3-fluoro-β-(3-fluorophenyl)-L-phenylalaninamide] | 240 |
| COC(=O)N[C@H](C(=O)Nc1cncc(F)c1CC[C@@H]1CNCCN1S(C)(=O)=O)[C@@H](c1ccc(F)cc1)c1cc(F)cc(F)c1 [Example 49, methyl ((1S,2S)-1-(3,5-difluorophenyl)-3-((5-fluoro-4-(2-((R)-1-(methylsulfonyl)piperazin-2-yl)ethyl)pyridin-3-yl)amino)-1-(4-fluorophenyl)-3-oxopropan-2-yl)carbamate] | 1700 |
| COC(=O)N[C@H](C(=O)Nc1cncc(F)c1CC[C@H]1CNC[C@H](C)N1S(=O)(=O)C1CC1)[C@@H](c1ccc(Cl)cc1)c1cccc(F)c1 [Example 11, Methyl ((1S,2S)-1-(4-chlorophenyl)-3-((4-(2-((2S,6S)-1-(cyclopropylsulfonyl)-6-methylpiperazin-2-yl)ethyl)-5-fluoropyridin-3-yl)amino)-1-(3-fluorophenyl)-3-oxopropan-2-yl)carbamate] | 11 |
| C[C@H]1CNC[C@H](CCc2c(F)cncc2NC(=O)[C@@H](N)[C@@H](c2ccc(Cl)cc2)c2cccc(F)c2)N1S(C)(=O)=O [Example 213, (βS)-4-chloro-N-(5-fluoro-4-{2-[(2S,6S)-6-methyl-1-(methylsulfonyl)piperazin-2-yl]ethyl}pyridin-3-yl)-β-(3-fluorophenyl)-L-phenylalaninamide] | 29 |
| CC(C)[C@H](c1ccc(Cl)cc1)[C@H](N)C(=O)Nc1cccc(F)c1CC[C@H]1CNC[C@H](C)N1S(=O)(=O)c1ccc(OC(F)(F)F)cc1 [Example 140, (βR)-4-chloro-N-(3-fluoro-2-{2-[(2S,6S)-6-methyl-1-{[4-(trifluoromethoxy)phenyl]sulfonyl}piperazin-2-yl]ethyl}phenyl)-β-(1-methylethyl)-L-phenylalaninamide] | 250 |
| C[C@H]1CNC[C@H](CCc2c(F)cccc2NC(=O)[C@@H](N)[C@@H](c2ccc(F)cc2)c2cc(F)cc(F)c2)N1S(=O)(=O)c1ccccc1Cl [Example 229, (βS)-N-[2-(2-{(2S,6S)-1-[(2-chlorophenyl)sulfonyl]-6-methylpiperazin-2-yl}ethyl)-3-fluorophenyl]-β-(3,5-difluorophenyl)-4-fluoro-L-phenylalaninamide] | 350 |
| CCN(CC)S(=O)(=O)N1CCNC[C@@H]1CCc1c(F)cncc1NC(=O)C[C@@H](c1ccc(F)cc1)c1cc(F)cc(F)c1 [Example 340, (3S)-N-(4-{2-[(2S)-1-(diethylsulfamoyl)pipera-zin-2-yl]ethyl}-5-fluoropyridin-3-yl)-3-(3,5-difluorophenyl)-3-(4-fluorophenyl)propanamide] | 210 |
| C[C@H]1CNC[C@H](CCc2c(F)cccc2NC(=O)[C@@H](N)[C@@H](Cc2ccc(F)cc2)c2ccc(Cl)cc2)N1S(=O)(=O)c1ccc(OC(F)(F)F)cc1 [Example 220, (βS)-4-chloro-β-(4-fluorobenzyl)-N-(3-fluoro-2-{2-[(2S,6S)-6-methyl-1-{[4-(trifluoromethoxy)phenyl]sulfonyl}piperazin-2-yl]ethyl}phenyl)-L-phenylalaninamide] | 780 |
| COC(=O)N[C@H](C(=O)Nc1cccc(F)c1CC[C@H]1CNC[C@H](C)N1S(=O)(=O)c1ccccc1)[C@@H](c1ccc(F)cc1)c1cc(F)cc(F)c1 [Example 95, (βS)-β-(3,5-difluorophenyl)-4-fluoro-N-(3-fluoro-2-{2-[(2S,6S)-6-methyl-1-(phenylsulfonyl)piperazin-2-yl]ethyl}phenyl)-Nα-(methoxycarbonyl)-L-phenylalaninamide] | 20 |
| CC(C)[C@H](c1ccc(Cl)cc1)[C@H](N)C(=O)Nc1cncc(F)c1CC[C@H]1CNC[C@H](C)N1S(=O)(=O)c1ccccc1 [Example 126, (βR)-4-chloro-N-(5-fluoro-4-{2-[(2S,6S)-6-methyl-1-(phenylsulfonyl)piperazin-2-yl]ethyl}pyridin-3-yl)-β-(1-methylethyl)-L-phenylalaninamide] | 16 |
| COC(=O)N[C@H](C(=O)Nc1cccc(F)c1CC[C@H]1CNC[C@H](C)N1S(=O)(=O)c1ccccc1OC)[C@@H](c1ccc(F)cc1)c1cc(F)cc(F)c1 [Example 240, (βS)-β-(3,5-difluorophenyl)-4-fluoro-N-[3-fluoro-2-(2-{(2S,6S)-1-[(2-methoxyphenyl)sulfonyl]-6-methylpiperazin-2-yl}ethyl)phenyl]-Nα-(methoxycarbonyl)-L-phenylalaninamide] | 71 |
| C[C@H]1CNC[C@H](CCc2c(F)cccc2NC(=O)[C@@H](N)[C@@H](c2ccc(Cl)cc2)C2CCOCC2)N1S(C)(=O)=O [Example 121, (βR)-4-chloro-N-(3-fluoro-2-{2-[(2S,6S)-6-methyl-1-(methylsulfonyl)piperazin-2-yl]ethyl}phenyl)-β-(tetrahydro-2H-pyran-4-yl)-L-phenylalaninamide] | 72 |
| COC(=O)N[C@H](C(=O)Nc1cncc(F)c1CC[C@H]1CNC[C@H](C)N1S(=O)(=O)c1ccc(OC)cc1)[C@@H](c1ccc(F)cc1)c1cc(F)cc(F)c1 [Example 246, (βS)-β-(3,5-difluorophenyl)-4-fluoro-N-[5-fluoro-4-(2-{(2S,6S)-1-[(4-methoxyphenyl)sulfonyl]-6-methylpiperazin-2-yl}ethyl)pyridin-3-yl]-Nα-(methoxycarbonyl)-L-phenylalaninamide] | 5.9 |
| COC(=O)N[C@H](C(=O)Nc1cccc(F)c1CC[C@H]1CNCCN1S(=O)(=O)c1ccccc1)[C@H](CCC1CCOCC1)c1ccc(Cl)c(F)c1 [Example 73, (βR)-4-chloro-3-fluoro-N-(3-fluoro-2-{2-[(2S)-1-(phenylsulfonyl)piperazin-2-yl]ethyl}phenyl)-Nα-(methoxycarbonyl)-β-[2-(tetrahydro-2H-pyran-4-yl)ethyl]-L-phenylalaninamide] | 7.6 |
| O=C(CC(c1ccc(F)cc1)c1ccc(F)cc1)Nc1cccc(F)c1CC[C@H]1CNCCN1S(=O)(=O)c1ccccc1 [Example 60, 3,3-bis(4-fluorophenyl)-N-(3-fluoro-2-{2-[(2S)-1-(phenylsulfonyl)piperazin-2-yl]ethyl}phenyl)propanamide] | 27 |
| COC(=O)N[C@H](C(=O)Nc1cncc(F)c1CC[C@H]1CNCCN1S(=O)(=O)c1ccccc1)[C@@H](c1ccc(Cl)cc1)c1cccc(OC(F)(F)F)c1 [Example 56, (βS)-4-chloro-N-(5-fluoro-4-{2-[(2S)-1-(phenylsulfonyl)piperazin-2-yl]ethyl}pyridin-3-yl)-Nα-(methoxycarbonyl)-β-[3-(trifluoromethoxy)phenyl]-L-phenylalaninamide] | 13 |
| C[C@@H]1CNC[C@H](CCc2c(F)cccc2NC(=O)[C@@H](N)[C@@H](c2ccc(F)cc2)c2cc(F)cc(F)c2)N1S(=O)(=O)c1ccccc1 [Example 94, (βS)-β-(3,5-difluorophenyl)-4-fluoro-N-(3-fluoro-2-{2-[(2S,6R)-6-methyl-1-(phenylsulfonyl)piperazin-2-yl]ethyl}phenyl)-L-phenylalaninamide] | 24 |
| Cn1ccc(S(=O)(=O)N2CCNC[C@@H]2CCc2c(F)cncc2NC(=O)C[C@@H](c2ccc(F)cc2)c2cc(F)cc(F)c2)n1 [Example 306, (3S)-3-(3,5-difluorophenyl)-N-[5-fluoro-4-(2-{(2S)-1-[(1-methyl-1H-pyrazol-3-yl)sulfonyl]piperazin-2-yl}ethyl)pyridin-3-yl]-3-(4-fluorophenyl)propanamide] | 6.5 |
| C[C@H]1CN(S(=O)(=O)c2ccccc2)[C@@H](CCc2c(F)cccc2NC(=O)CC(c2ccc(F)cc2)c2ccc(F)cc2)CN1 [Example 89, N-(3-fluoro-2-{2-[(2S,5S)-5-methyl-1-(phenylsulfonyl)piperazin-2-yl]ethyl}phenyl)-3,3-bis(4-fluorophenyl) propanamide] | 700 |
| N[C@H](C(=O)Nc1cccc(F)c1CC[C@H]1CNCCN1S(=O)(=O)c1ccccc1)C(c1ccc(F)cc1)c1ccc(F)cc1 [Example 32, (S)-2-amino-N-(3-fluoro-2-(2-((S)-1-(phenylsulfonyl)piperazin-2-yl)ethyl)phenyl)-3,3-bis(4-fluorophenyl) propanamide] | 6.6 |
| C[C@@H]1C[C@H]([C@H](c2ccc(F)cc2)[C@H](N)C(=O)Nc2cccc(F)c2CC[C@H]2CNC[C@@H](C)N2S(=O)(=O)c2ccccc2)C[C@H](C)O1 [Example 370, (2S,3R)-2-amino-3-((2R,4r,6S)-2,6-dimethyltetrahydro-2H-pyran-4-yl)-N-(3-fluoro-2-(2-((2S,6R)-6-methyl-1-(phenylsulfonyl)piperazin-2-yl)ethyl)phenyl)-3-(4-fluorophenyl)propanamide] | 7.5 |
| COC(=O)N[C@H](C(=O)Nc1cccc(F)c1CC[C@H]1CNC[C@H](C)N1S(C)(=O)=O)[C@@H](c1ccc(Cl)cc1)c1ccc(OC)nc1 [Example 165, (βS)-4-chloro-N-(3-fluoro-2-{2-[(2S,6S)-6-methyl-1-(methylsulfonyl)piperazin-2-yl]ethyl}phenyl)-Nα-(methoxycarbonyl)-β-(6-methoxypyridin-3-yl)-L-phenylalaninamide] | 17 |
| CC(C)[C@H](c1ccc(Cl)cc1)[C@H](N)C(=O)Nc1cccc(F)c1CC[C@H]1CNC[C@@H](C)N1S(=O)(=O)c1ccccc1 [Example 110, (βR)-4-chloro-N-(3-fluoro-2-{2-[(2S,6R)-6-methyl-1-(phenylsulfonyl)piperazin-2-yl]ethyl}phenyl)-β-(1-methylethyl)-L-phenylalaninamide] | 74 |
